Test: xn = mol fraction of the nth substance listed
Conditions: 101 kPa

CCOCC(C)O (stereo not drawn) + CCCC[n+]1ccn(C)c1.F[P-](F)(F)(F)(F)F
speed of sound [m/s]
Conditions	x1 = 0.0532	x1 = 0.172	x1 = 0.255	x1 = 0.3298	x1 = 0.5031	x1 = 0.6555	x1 = 0.8423	x1 = 0.9	x1 = 0.9474
288.15 K	1462	1449.6	1437.8	–	1390.7	–	–	–	–
298.15 K	1437	1424.7	1412.6	1399.7	1363.1	1325.5	–	1260.4	1247.7
308.15 K	1414.1	1400.1	–	1374.8	1336.2	1296	1242.1	1225.4	–

COCC(C)O (stereo not drawn) + CCCC[n+]1ccn(C)c1.F[P-](F)(F)(F)(F)F
speed of sound [m/s]
Conditions	x1 = 0.0426	x1 = 0.126	x1 = 0.2396	x1 = 0.4116	x1 = 0.5071	x1 = 0.6847	x1 = 0.8536	x1 = 0.9447
288.15 K	1464.5	1458.3	1449.3	–	1420.4	1390.4	–	1322.3
298.15 K	1439.7	1433.7	1424.6	–	1393.6	1360.9	1316.9	1286.9
308.15 K	1416.2	–	1400.6	1381.5	1367.3	1331.8	–	1251.5

COCCOCCO + CCCC[n+]1ccn(C)c1.F[P-](F)(F)(F)(F)F
speed of sound [m/s]
Conditions	x1 = 0.1008	x1 = 0.2217	x1 = 0.3398	x1 = 0.4582	x1 = 0.519	x1 = 0.6876	x1 = 0.8005	x1 = 0.8758	x1 = 0.9136
288.15 K	–	1469	1473	1478.1	1480.6	1484.3	–	–	1474.1
298.15 K	1443.7	–	1448	1452.2	–	1455.5	1451.5	1445.7	1441.7
308.15 K	1420.3	1420.8	1423.5	1426.6	1427.8	–	–	1414.2	1409.4
